Data from publication PMC10384011, “m-Terphenylamines, Acting as Selective COX-1 Inhibitors, Block Microglia Inflammatory Response and Exert Neuroprotective Activity” (Molecules, 2023).

Legend:
BV2 microglia cells [1] = test: LPS-induced activated (ramified) phenotype of BV2 microglia; assay type: cell-based; conditions: 3 μM, LPS 1 μg/mL, 24 h
Text: Next, we set out to study the changes in microglia phenotype under this toxicity protocol. As mentioned above, microglia are comprised of variable morphology cells that are always adapting to the surrounding media and, therefore, to physiopathological conditions. Indeed, morphological appearance is well correlated with the different states of microglia activation. The microglia-activated phenotype (M1), which is the classical state of this kind of cell in response to proinflammatory insults such as LPS, is linked with the overexpression of a plethora of cytokines and inflammatory markers, namely TNF, IL-1β, IL-6, MCP-1 or CD11b. All of these markers are commonly associated with morphological changes towards an amoeboid phenotype in primary cultures or in in vivo studies. Nevertheless, it has been recently described that BV2 microglia, as well as macrophages, turn from rounded to spindle-shaped or multipolar phenotypes in response to various M1 proinflammatory stimuli such as LPS/IFNγ or spinal cord injury conditioned media. In this context, we assessed the ability of our compounds to prevent the morphological changes induced by LPS by analyzing the percentage of BV2 ramified cells (multipolar or spindle) over the total BV2 per field following cell incubation with our compounds and 1 μg/mL LPS for 24 h.
(§1) Cultures were seeded into flasks containing supplemented medium and kept at 37 °C in a humidified atmosphere of 5% CO2 and 95% air. For assays, BV-2 cells were subcultured in 48-well plates at a seeding density of 1 × 10^5 cells per well. Cells were treated with LPS (Sigma-Aldrich, Madrid, Spain) for 24 or 48 h before confluence in RPMI with 1% FBS.

BV2 microglia cells [2] = test: ROS production (H2DCFDA) in LPS-treated BV2 microglia; assay type: cell-based; conditions: 3 μM, LPS 1 μg/mL, 24 h
Text: Activation of toll-like receptors (TLRs), particularly the TLR4 subtype, is closely associated with the production of reactive oxygen and nitrogen species that contribute to neuronal death in the CNS. In this connection, NADPH oxidase enzymes are the main ones responsible for ROS production induced by NF-κB nuclear translocation. For this reason, we decided to assess the ROS levels of BV2 microglia cells treated with LPS and the effect of our compounds under this toxicity protocol. To this end, the compounds, at different concentrations (3 μM of 3a, 3b, and 3d and 10 μM of 3c) were incubated with 1 μg/mL LPS for 24 h. After this period, ROS production was measured with the fluorescent probe H2DCFDA. Treatment with LPS increased by 1.75-fold the amount of ROS compared with control cells.
as §1
To measure cellular ROS, we used the molecular probe 2′,7′-dichlorodihydrofluorescein diacetate (H2DCFDA). Glial cells were loaded with 5 µM H2DCFDA as it was previously described (Parada et al., 2015). Fluorescence was measured in a fluorescence microplate reader (FLUOstar Galaxy; BMG Labtech, Offenburg, Germany). Wavelengths of excitation and emission were 485 and 520 nm, respectively. The relative pixel intensity was measured in identical regions with (ImageJ 1.52a software, National Institutes of Health, Bethesda, MD, USA).

[3] = system: organotypic hippocampal cultures (OHCs); test: Cell death (propidium iodide uptake, CA1) in organotypic hippocampal cultures treated with LPS; assay type: cell-based, Sprague-Dawley rats; conditions: LPS 1 μg/mL, 24 h
Method: With these promising data in hand, we selected compound 3b for its study in a more complex preparation. In vivo administration of LPS produces a proinflammatory cascade that causes memory deficits, an increase of inflammatory markers, and impairment of hippocampal glutamatergic transmission, contributing to neuronal death. All of these functional changes have been described to take place mainly in the hippocampus region. Thus, we subjected organotypic hippocampal cultures (OHCs) to LPS (1 μg/mL) to assess the protective effect of COX-1 inhibition. This kind of explant allows us to study the microglia-neuron network in a more complex and physiological model of cerebral insult.
OHCs were conducted on 8–10-day-old Sprague-Dawley rats supplied by the animal facilities of Universidad Autónoma de Madrid (Madrid, Spain). Cultures were prepared according to the methods described by Stoppini et al. with some modifications. […]
Cell death was determined in the CA1 region by staining the OHCs with propidium iodide (PI). Thirty minutes before analyzing fluorescence, slices were incubated with PI (1 µg/mL). Fluorescence was measured in an epifluorescence Olympus BX50WI microscope. […] Fluorescence was measured in each slice using ImageJ.

BV2 microglia cells [4] = test: Nitrite release (Griess reaction) in LPS-treated BV2 microglia; assay type: cell-based; conditions: LPS 1 μg/mL, basal = 100
Text: The COX-1 inhibition data prompted us to undertake further work on the activity of compounds 3 in a neuroinflammation situation. Once we had verified that the compounds studied were not toxic per se in microglia BV2 cells (see the data in Table S1), we measured the nitrites released to determine the efficacy of our compounds in reducing microglia activation. Nitric oxide is a potent mediator of the classic activated microglia phenotype (M1); in fact, the lack of nitrite release correlated with an anti-inflammatory microglia (M2) phenotype. Therefore, we evaluated the response of the BV2 microglia cells to a challenge of 1 μg/mL LPS. For this purpose, BV2 microglia cells were incubated with LPS, a well-known agonist of the toll-like receptor 4 (TLR4) that causes a neuroinflammatory response, in combination with increasing concentrations of our COX-1 inhibitors (1, 3, and 10 μM). […] Similar results were observed after 48 h of the LPS treatment.
as §1
The NO assay was performed using the previously reported protocols. Briefly, 100 μL of culture supernatants were mixed with the same volume of Griess assay regent (1% sulfanilamide (Sigma Aldrich, Madrid, Spain), 0.1% naphthylethylenediamine dihydrochloride, and 2.5% phosphoric acid). Ten minutes later, the 560-nm absorbance was measured.

SMILES: Cc1ccc(-c2cc(N)cc(-c3ccccc3)c2)cc1 [Compound 3b, 4-Methyl-5′-amino-m-terphenyl]
- Reduction of the number of BV2 ramified cells (BV2 microglia cells [1]): 60%
- ROS production induced by LPS (BV2 microglia cells [2]): significantly reverted ROS production almost to basal levels
- Cell death (PI uptake in CA1) induced by LPS [3]: reduced cell death induced by LPS almost to basal levels
- Nitrite Release after 24 h (BV2 microglia cells [4]; 1 μM): 123 ± 8%
- Nitrite Release after 48 h (BV2 microglia cells [4]; 1 μM): 140 ± 14%
- Nitrite Release after 24 h (BV2 microglia cells [4]; 3 μM): 100 ± 4 %
- Nitrite Release after 48 h (BV2 microglia cells [4]; 3 μM): 123 ± 10 %
- Nitrite Release after 24 h (BV2 microglia cells [4]; 10 μM): 105 ± 6 %
- Nitrite Release after 48 h (BV2 microglia cells [4]; 10 μM): 128 ± 10 %
